Legend:
[1] = refractive index (Na D-line) (dimensionless); xn = mol fraction of the nth substance listed; conditions: 303.15 K, 101.3 kPa, Liquid, Standard Abbe refractometry
[2] = xn = mol fraction of the nth substance listed; conditions: 303.15 K, 101.3 kPa, Liquid; for speed of sound: Linear variable-path acoustic interferometer
[3] = refractive index (Na D-line) (dimensionless); conditions: 101.33 kPa, Liquid, Standard Abbe refractometry
[4] = 101.33 kPa, Liquid; for speed of sound: Linear variable-path acoustic interferometer

ClC(Cl)C(Cl)Cl [1,1,2,2-tetrachloroethane] + C1CCOC1
Conditions	mass density, [2] [kg/m3]	refractive index, [1]	speed of sound, [2] [m/s]	viscosity, [2] [mPa·s]
x2 = 0.1023	1523.21	1.483	1138	1.389
x2 = 0.2128	1460.02	1.476	1143	1.307
x2 = 0.3093	1401.59	1.4701	1149	1.227
x2 = 0.4056	1340.18	1.4639	1157	1.136
x2 = 0.5093	1270.31	1.4556	1168	1.029
x2 = 0.6032	1203.28	1.4472	1180	0.9116
x2 = 0.7046	1126.91	1.4368	1195	0.786
x2 = 0.8008	1050.12	1.4268	1212	0.6647
x2 = 0.8973	968.58	1.416	1231	0.5519

ClC(Cl)C(Cl)Cl [1,1,2,2-tetrachloroethane]
303.15 K
Conditions	mass density [kg/m3]	refractive index	speed of sound [m/s]	viscosity [mPa·s]
[3]	–	1.4881	–	–
[4]	1578.6	–	1135	1.457

ClC(Cl)(Cl)Cl [tetrachloromethane] + C1CCOC1
Conditions	mass density, [2] [kg/m3]	refractive index, [1]	speed of sound, [2] [m/s]	viscosity, [2] [mPa·s]
x2 = 0.1068	1513.72	1.4519	932	0.8152
x2 = 0.2017	1457.18	1.4486	955	0.788
x2 = 0.3004	1395.97	1.4451	982	0.758
x2 = 0.396	1334.07	1.4409	1008	0.721
x2 = 0.503	1261.58	1.4357	1042	0.6782
x2 = 0.6	1192.83	1.4304	1074	0.6359
x2 = 0.6923	1124.71	1.4247	1109	0.5916
x2 = 0.7949	1045.62	1.4182	1152	0.5453
x2 = 0.8889	969.98	1.4116	1196	0.4962

C1CCOC1 [tetrahydrofuran] + CCOC(C)=O
Conditions	mass density, [2] [kg/m3]	refractive index, [1]	speed of sound, [2] [m/s]	viscosity, [2] [mPa·s]
x1 = 0.0995	887.39	1.3707	1129	0.4078
x1 = 0.2035	886.11	1.375	1141	0.4082
x1 = 0.3016	884.98	1.3785	1153	0.4085
x1 = 0.3923	883.95	1.3821	1165	0.4091
x1 = 0.4868	882.82	1.3858	1177	0.4111
x1 = 0.5955	881.45	1.3892	1192	0.4147
x1 = 0.6973	880.21	1.3921	1206	0.4184
x1 = 0.812	878.89	1.3964	1224	0.4236
x1 = 0.9	877.84	1.3995	1238	0.4287

CCCCCCBr [1-bromohexane]
Conditions	mass density, [4] [kg/m3]	refractive index, [3]	speed of sound, [4] [m/s]	viscosity, [4] [mPa·s]
298.15 K	1169.62	1.4464	–	–
303.15 K	1162.67	1.4441	1075	0.903

CCCCCCCl [1-chlorohexane] + C1CCOC1
Conditions	mass density, [2] [kg/m3]	refractive index, [1]	speed of sound, [2] [m/s]	viscosity, [2] [mPa·s]
x2 = 0.1039	869.11	1.4161	1195	0.6407
x2 = 0.305	870.03	1.4142	1216	0.6046
x2 = 0.5025	871.36	1.4122	1233	0.5698
x2 = 0.7336	873.79	1.4088	1247	0.5114
x2 = 0.9013	875.66	1.4053	1252	0.4711

CCCCCCCl [1-chlorohexane]
Conditions	mass density, [4] [kg/m3]	refractive index, [3]	speed of sound, [4] [m/s]	viscosity, [4] [mPa·s]
298.15 K	873.47	1.4197	–	–
303.15 K	868.78	1.4168	1184	0.6544

Reference: the NIST ThermoML archive (doi:10.1016/j.tca.2004.08.001)
